{"source": "patent US20120183536A1", "about": "“METHODS OF USING CORTICOTROPIN-RELEASING FACTOR FOR THE TREATMENT OF CANCER” (priority 2009, published 2012)", "key": {"[1]": {"test_system": "MX-1 human breast carcinoma", "test": "MX-1 human breast carcinoma xenograft in nu/nu mice, tumor volume", "type": "in vivo", "description": "(§1) In another study, 8-12 week old female nu/nu mice were injected with 1 mm^3 tumor fragments of MX-1 human breast carcinoma subcutaneously. Once tumors developed and reached an average size of 80-120 mg, mice received administration of: (1) saline (control) (twice daily, subcutaneous); (2) CRF (100 μg/kg) (twice daily, subcutaneous); (3) CRF (200 μg/kg) (twice daily, subcutaneous); (4) bevacizumab (Avastin®) (5 mg/kg) (twice weekly, intraperitoneal); or (5) CRF (200 μg/kg) (twice daily, subcutaneous) and bevacizumab (Avastin®) (5 mg/kg) (twice weekly, intraperitoneal) (FIG. 13A). Body weight and tumor volume were measured twice a week until the endpoint of the experiment, i.e., the earlier of either 60 days or achieving a tumor weight of 1.5 g.)."}, "[2]": {"test_system": "Colo205 human colon tumor cells", "test": "Colo205 human colon tumor xenograft in nu/nu mice, tumor volume", "type": "in vivo", "description": "In one study, 8-12 week old female nu/nu mice were injected with 1×10^6 Colo205 human colon tumor cells subcutaneously. Once tumors developed and reached an average size of 100-150 mg, mice received administration of: (1) saline (control) (twice daily, subcutaneous); (2) CRF (100 μg/kg) (twice daily, subcutaneous); (3) CRF (200 μg/kg) (twice daily, subcutaneous); (4) bevacizumab (Avastin®) (5 mg/kg) (twice weekly, intraperitoneal); or (5) CRF (200 μg/kg) (twice daily, subcutaneous) and bevacizumab (Avastin®) (5 mg/kg) (twice weekly, intraperitoneal) (FIG. 11A). Body weight and tumor volume were measured twice a week until the endpoint of the experiment, i.e., the earlier of either 60 days or a tumor volume of 1000 mm^3."}, "[3]": {"test_system": "human Non-Small Cell Lung Carcinoma (NSCLC) tumor cell lines", "test": "human Non-Small Cell Lung Carcinoma xenograft in nu/nu mice, tumor volume", "type": "in vivo", "description": "as §1, with “a second” for “another”, “of” for “of MX-1”, “Non-Small Cell Lung Carcinoma (NSCLC) tumor cell lines” for “breast carcinoma”, “12A).” for “13A).”, “2” for “1.5”"}, "[4]": {"test_system": "brain tumor in metastatic patients", "test": "Clinical study: metastatic patients, brain tumor size by MRI and survival", "type": "in vivo, human", "conditions": "2 mg/day s.c."}, "U87 Fluc brain tumor": {"test_system": "U87 Fluc brain tumor", "description": "The results were obtained with SCID mice bearing brain tumors produced by injection with the human glioblastoma cell line U87 Flue. The U87 Flue cell line was created by stably transducing U87 cells with a lentiviral construct containing the luc gene."}, "malignant brain tumor": {"test_system": "malignant brain tumor", "test": "Clinical study: patients with malignant brain tumor, tumor size by MRI and survival", "type": "in vivo, human", "description": "Patients with malignant brain tumor were treated with 2 mg/day (1 mg dose, twice daily) of either human CRF subcutaneously. […] Additionally, of the 30 patients who had received treatment for at least 6 months, 10 experienced a decrease in tumor size."}, "[5]": {"conditions": "bevacizumab 5 mg/kg twice weekly, intraperitoneal"}, "[6]": {"conditions": "CRF 100 or 200 μg/kg twice daily, subcutaneous"}, "[7]": {"conditions": "of the 3 metastatic patients of FIG. 10"}, "[8]": {"conditions": "low dose of CRF, 30 μg/kg s.c. twice daily"}}, "note": "Like-named read-outs stand apart in the source and are kept apart here."}
{"molecule": "bevacizumab (Avastin®): angiogenesis inhibitor bevacizumab (Avastin®) [reference compound]", "values": [{"measurement": "tumor volume compared to control", "setting": "[1]; [5]", "value": "reduction in tumor volume"}, {"measurement": "tumor volume compared to control", "setting": "[2]; [5]", "value": "reduction in tumor volume"}, {"measurement": "tumor volume compared to control", "setting": "[3]; [5]", "value": "reduction in tumor volume"}]}
{"molecule": "corticorelin acetate [CRF]", "values": [{"measurement": "tumor volume compared to control", "setting": "[1]; [6]", "value": "reduction in tumor volume"}, {"measurement": "response of metastatic patients to treatment", "setting": "[4]", "value": "responded very favorably"}, {"measurement": "metastatic patients exhibiting survival beyond the projected 3-6 months", "setting": "[4]; [7]", "value": 3, "unit": "patients"}, {"measurement": "metastatic patients showing a reduction in tumor size at the last timepoint measured", "setting": "[4]; [7]", "value": 2, "unit": "patients"}, {"measurement": "brain tumor progression (photon emission)", "setting": "U87 Fluc brain tumor; [8]", "value": "did not progress or progressed more slowly"}, {"measurement": "mean survival time (comparison)", "setting": "U87 Fluc brain tumor; [8]", "value": "between mice, that were administered a high dose of CRF, and mice that had received no treatment or were administered dexamethasone"}, {"measurement": "mice still alive at the end of the 80-day study period", "setting": "U87 Fluc brain tumor; [8]", "value": 60, "unit": "%"}, {"measurement": "survival compared with untreated, dexamethasone or chemotherapeutic agents", "setting": "U87 Fluc brain tumor; [8]", "value": "survived longer"}, {"measurement": "survival after CRF treatment, some patients", "setting": "malignant brain tumor; FIGS. 8 and 9", "value": "1-2 years"}, {"measurement": "patients exhibiting a reduction in tumor size at the last time point measured", "setting": "malignant brain tumor; of the 10 patients of FIG. 9, 2 mg/day s.c.", "value": 8, "unit": "patients"}, {"measurement": "patients exhibiting a reduction in tumor size", "setting": "malignant brain tumor; of the 20 patients of FIG. 8, 2 mg/day (1 mg twice daily) s.c.", "value": 6, "unit": "patients"}, {"measurement": "patients exhibiting a maintenance in tumor size", "setting": "malignant brain tumor; of the 20 patients of FIG. 8, 2 mg/day s.c.", "value": 5, "unit": "patients"}, {"measurement": "patients exhibiting a reduction in tumor size by over 50%", "setting": "malignant brain tumor; of the 20 patients of FIG. 8, after 9 months of treatment, 2 mg/day s.c.", "value": 3, "unit": "patients"}, {"measurement": "patients experiencing a decrease in tumor size", "setting": "malignant brain tumor; of the 30 patients treated for at least 6 months, 2 mg/day s.c.", "value": 10, "unit": "patients"}, {"measurement": "survival of the overwhelming majority of patients", "setting": "malignant brain tumor; projected survival 3-6 months, FIGS. 8 and 9", "value": "live well beyond the projected 3-6 months"}, {"measurement": "reduction in tumor size", "setting": "malignant brain tumor; two of the patients, 2 mg/day s.c.", "value": "around 90%"}, {"measurement": "tumor volume compared to control", "setting": "[2]; [6]", "value": "reduction in tumor volume"}, {"measurement": "tumor volume compared to control", "setting": "[3]; [6]", "value": "reduction in tumor volume"}]}
{"molecule": "O=NN(CCCl)C(=O)NCCCl", "note": "[BiCNU, carmustine, reference compound]", "values": [{"measurement": "brain tumor progression (photon emission)", "setting": "U87 Fluc brain tumor; BiCNU 20 mg/kg intraperitoneally 5 days/week", "value": "continued to grow"}]}
{"molecule": "Cn1nnc2c(C(N)=O)ncn2c1=O", "note": "[TMZ, temozolomide, reference compound]", "values": [{"measurement": "mice still alive at the end of the 80-day study period", "setting": "U87 Fluc brain tumor; TMZ 40 mg/kg intraperitoneally 5 days/week", "value": 40, "unit": "%"}]}
